Literature values, collected in patent publication EP3954777A1, “METHOD FOR ENZYMATIC DEGRADATION OF BITTER COMPOUNDS IN AGRO-INDUSTRIAL BY-PRODUCTS” (SternEnzym GmbH & Co. KG, priority 2020, dated 2022).

Tested on: human test persons
Details: bitter taste

kaempferol 3-O-(2"'-O-sinapoyl-β-sophoroside)
level that, on average, can be tasted by humans (average (Hald et al., 2019)): 3.4 µmol/L | lowest level detectable by human test persons (lowest (Hald et al., 2019)): 1.7 µmol/L
